Activity calls are given as the source filed them.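 The calls were made as follows: active = fitted curve reaches 40% activation below the top valid tested dose, in every test run; inconclusive = test runs disagree on the call; inactive = the rest, including effects opposite to the expected direction.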
Test: endothelial E-selectin upregulation by compounds – imaging, HUVEC, cherry-picked samples, dose response (AID 977605);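 also: signal is the share of imaged cells scored positive for E-selectin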
Settings: HUVEC E-selectin immunostaining
[1] = at 19.5 µM (top of the series), percent of TNF-alpha response over vehicle
[2] = at 21 µM (top of the series), percent of TNF-alpha response over vehicle

Structure (SMILES): CC(C)NC(=O)N(C)C[C@@H]1Oc2c(NC(=O)c3cnccn3)cccc2C(=O)N([C@@H](C)CO)C[C@@H]1C
- activation [1]: -0.012% (inactive)

Structure (SMILES): COc1ccc(NC(=O)N(C)C[C@H]2Oc3c(NS(=O)(=O)c4cn(C)cn4)cccc3C(=O)N([C@@H](C)CO)C[C@@H]2C)cc1
- activation [1]: 0.542% (inactive)

Structure (SMILES): O=S(=O)(c1ccc(F)cc1)N1CCCN(c2nccc(C(F)(F)F)n2)CC1
- activation [1]: -0.174% (inactive)

Structure (SMILES): Cc1noc(C)c1NC(=O)Nc1ccc2c(c1)CC(=O)N([C@@H](C)CO)C[C@H](C)[C@H](CN(C)Cc1ccc(Oc3ccccc3)cc1)O2
- activation [1]: 0.075% (inactive)

Structure (SMILES): CN1CCN(c2cn[nH]c(=O)c2Cl)CC1
- activation (at 19.5 µM (top of the series)): -0.235% (inactive)

Structure (SMILES): Cn1nc(C(=O)NNC(=O)c2ccccc2Br)c2ccccc2c1=O
- activation [1]: -0.008% (inactive)

Structure (SMILES): OC(COC(c1ccccc1)c1ccccc1)CN1CCOCC1 (configuration not stated)
- activation [1]: 2% (inactive)

Structure (SMILES): C[C@H](CO)N1C[C@H](C)[C@H](CN(C)S(=O)(=O)c2ccccc2)Oc2ccc(NC(=O)Nc3ccc(F)cc3)cc2CC1=O
- activation [1]: 0.322% (inactive)

Structure (SMILES): COc1ccc(S(=O)(=O)Nc2ccc3c(c2)CC(=O)N([C@H](C)CO)C[C@@H](C)[C@@H](CN(C)C(=O)NC2CCCCC2)O3)cc1
- activation [1]: 0.114% (inactive)

Structure (SMILES): CCC(CC)NC(=O)Nc1ccc(F)c(Cl)c1
- activation [1]: 0.516% (inactive)

Structure (SMILES): C[C@@H]1CN([C@H](C)CO)C(=O)Cc2cc(NC(=O)C3CC3)ccc2O[C@@H]1CN(C)Cc1ccc2c(c1)OCO2
- activation [1]: -0.006% (inactive)

Structure (SMILES): C[C@@H]1CN([C@@H](C)CO)C(=O)Cc2cc(NC(=O)C3CC3)ccc2O[C@@H]1CN(C)C(=O)Nc1ccccc1
- activation [1]: 0.276% (inactive)

Structure (SMILES): CC(C)NC(=O)N(C)C[C@@H]1Oc2ccc(NC(=O)CCCN(C)C)cc2C(=O)N([C@@H](C)CO)C[C@H]1C
- activation [1]: -0.112% (inactive)

Structure (SMILES): Cc1noc(C)c1S(=O)(=O)Nc1ccc2c(c1)CC(=O)N([C@H](C)CO)C[C@H](C)[C@@H](CN(C)C(=O)Nc1cccc3ccccc13)O2
- activation [1]: -0.095% (inactive)

Structure (SMILES): CC(C)(C)S(=O)(=O)c1cnc(-c2cnccn2)nc1N
- activation [1]: -0.028% (inactive)

Structure (SMILES): C[C@@H]1CN([C@H](C)CO)C(=O)c2cc(NC(=O)c3ccncc3)ccc2O[C@@H]1CN(C)C(=O)Nc1ccc2c(c1)OCO2
- activation [2]: 0.64% (inactive)

Structure (SMILES): C[C@@H]1CN([C@H](C)CO)C(=O)c2cc(C3=CCCC3)cnc2O[C@@H]1CN(C)C(=O)Nc1ccccc1
- activation [1]: 0.119% (inactive)

Structure (SMILES): COc1ccc(S(=O)(=O)N2CCOCC2)cc1C(=O)NCc1ccccc1CN1CCCC1
- activation [1]: 0.269% (inactive)

Structure (SMILES): C[C@@H]1CN([C@@H](C)CO)C(=O)c2cccc(NS(=O)(=O)c3ccc(Cl)cc3)c2O[C@H]1CN(C)C(=O)Nc1ccc2c(c1)OCO2
- activation [1]: -0.05% (inactive)

Structure (SMILES): COc1ccc(NC(=O)Nc2ccc3c(c2)C(=O)N([C@@H](C)CO)C[C@H](C)[C@@H](CN(C)C)O3)cc1
- activation [1]: 1.42% (inactive)

Structure (SMILES): Cc1cccc(NC(=O)CCCN2C(=O)C(c3ccccc3)Oc3cccnc32)c1C (configuration not stated)
- activation [1]: 0.811% (inactive)

Structure (SMILES): CN(Cc1cccc2ncccc12)C(=O)CC1C(=O)NCCN1Cc1ccc(F)cc1 (configuration not stated)
- activation [1]: -0.111% (inactive)

Structure (SMILES): C[C@@H]1CN([C@H](C)CO)C(=O)c2cc(NC(=O)Nc3ccc4c(c3)OCO4)ccc2O[C@H]1CN(C)S(=O)(=O)c1ccc(F)cc1
- activation [1]: -0.11% (inactive)

Structure (SMILES): C[C@@H]1CN([C@H](C)CO)C(=O)c2cccc(NS(C)(=O)=O)c2O[C@@H]1CN(C)C(=O)Nc1cccc2ccccc12
- activation [1]: -0.133% (inactive)

Structure (SMILES): C[C@H](CO)N1C[C@H](C)[C@@H](CN(C)S(C)(=O)=O)Oc2ccc(NC(=O)C3CCCCC3)cc2CC1=O
- activation [1]: 0.112% (inactive)

Structure (SMILES): C[C@@H]1CN([C@@H](C)CO)C(=O)c2cc(NC(=O)Nc3ccccc3)ccc2O[C@@H]1CN(C)C(=O)Nc1ccc(C(F)(F)F)cc1
- activation [1]: 0.807% (inactive)

Structure (SMILES): C[C@@H]1CN([C@@H](C)CO)C(=O)Cc2cc(NS(=O)(=O)c3ccc(F)cc3)ccc2O[C@H]1CN(C)S(=O)(=O)c1ccc(Cl)cc1
- activation [1]: -0.127% (inactive)

Structure (SMILES): C[C@H](CO)N1C[C@H](C)[C@H](CN(C)Cc2ccc(C(=O)Nc3ccccc3N)cc2)Oc2ccc(NS(=O)(=O)c3cccs3)cc2CC1=O
- activation [1]: 6.58% (inactive)

Structure (SMILES): O=C(Cc1ccc(-n2c(=O)c3sccc3n(Cc3ccc(F)cc3)c2=O)cc1)NCc1ccco1
- activation [1]: 0.008% (inactive)

Structure (SMILES): O=S(=O)(NCc1csc(-c2cccs2)n1)c1cccc(C(F)(F)F)c1
- activation [1]: -0.123% (inactive)

Structure (SMILES): C[C@H]1CN([C@@H](C)CO)C(=O)c2cccc(NC(=O)c3nc4ccccc4s3)c2O[C@@H]1CN(C)Cc1ccc(C(F)(F)F)cc1
- activation [1]: -0.231% (inactive)

Structure (SMILES): C[C@H](CO)N1C[C@H](C)[C@H](CN(C)C(=O)c2ccc3c(c2)OCO3)Oc2cc(-c3ccccc3)ccc2S1(=O)=O
- activation [1]: -0.242% (inactive)

Structure (SMILES): C[C@H](CO)N1C[C@H](C)[C@H](CN(C)Cc2ccc3c(c2)OCO3)Oc2ccc(NC(=O)Cn3cnnn3)cc2C1=O
- activation [1]: 2.56% (inactive)

Structure (SMILES): CC12CCC(=O)N1C(C(=O)Nc1cc(Cl)ccc1N1CCOCC1)CS2 (configuration not stated)
- activation [1]: -0.124% (inactive)

Structure (SMILES): O=C(COC(=O)c1ccccc1NCCO)NNC(=O)c1cccs1
- activation [1]: -0.279% (inactive)

Structure (SMILES): C[C@@H]1CN([C@H](C)CO)C(=O)Cc2cc(NC(=O)Cc3ccccc3)ccc2O[C@H]1CN(C)S(C)(=O)=O
- activation [1]: -0.135% (inactive)

Structure (SMILES): CC(C)CCNC(=O)[C@H](Cc1ccccc1)N1Cc2ccccc2C1=O
- activation [1]: 0.131% (inactive)

Structure (SMILES): Cc1noc(C)c1COc1ccc(C(=O)N2CCC(C)CC2)cc1
- activation [1]: 8.94% (inactive)

Structure (SMILES): Cc1cc(C(=O)Nc2ccc(Cl)cc2)n(-c2ccccc2)n1
- activation [1]: 0.412% (inactive)

Structure (SMILES): C[C@@H]1CN([C@H](C)CO)C(=O)c2cc(NC(=O)CCN3CCOCC3)ccc2O[C@@H]1CN(C)Cc1ccc(C(F)(F)F)cc1
- activation [1]: -0.028% (inactive)

Structure (SMILES): Brc1cnc2nc(SCc3nc4ccccc4[nH]3)[nH]c2c1
- activation [1]: 1.19% (inactive)

Structure (SMILES): C[C@H](CO)N1C[C@H](C)[C@@H](CN(C)Cc2ccc(C(F)(F)F)cc2)Oc2ccc(NC(=O)CCC(F)(F)F)cc2C1=O
- activation [1]: 0.441% (inactive)

Structure (SMILES): O=S(=O)(NCc1cccnc1)c1ccc(Cl)c2ccccc12
- activation [1]: 0.304% (inactive)

Structure (SMILES): Cc1c(O)nc2ccccn2c1=O
- activation [1]: 0.171% (inactive)

Structure (SMILES): C[C@H](CO)N1C[C@H](C)[C@@H](CN(C)S(=O)(=O)c2cn(C)cn2)Oc2ccc(N(C)C)cc2C1=O
- activation [1]: 0.037% (inactive)

Structure (SMILES): CCCNC(=O)N(C)C[C@H]1Oc2ncc(C3=CCCC3)cc2C(=O)N([C@H](C)CO)C[C@@H]1C
- activation [1]: -0.163% (inactive)

Structure (SMILES): C[C@@H]1CN([C@H](C)CO)C(=O)c2cccc(NC(=O)Nc3ccc(C(F)(F)F)cc3)c2O[C@@H]1CN(C)S(=O)(=O)c1cccs1
- activation [1]: -0.223% (inactive)

Structure (SMILES): CN1c2ccc(C#Cc3cccnc3)cc2[C@@H]2[C@@H](CCN2C(=O)C2CCC2)[C@H]1CO
- activation (at 18 µM (top of the series), percent of TNF-alpha response over vehicle): -0.065% (inactive)

Structure (SMILES): C[C@H]1CN([C@@H](C)CO)C(=O)Cc2cc(NC(=O)c3ccncc3)ccc2O[C@H]1CN(C)C(=O)Nc1ccc(C(F)(F)F)cc1
- activation [1]: 0.212% (inactive)

Structure (SMILES): CCc1ccc(N2CC(C(=O)Nc3ccc(F)cc3)CC2=O)cc1 (configuration not stated)
- activation [1]: 0.132% (inactive)

Structure (SMILES): C[C@@H]1CN([C@@H](C)CO)S(=O)(=O)c2ccc(C#Cc3ccccc3)cc2O[C@@H]1CN(C)CC1CC1
- activation [1]: 0.541% (inactive)

Structure (SMILES): C[C@H]1CN([C@@H](C)CO)C(=O)c2cc(NC(=O)Nc3ccc(F)cc3)ccc2O[C@H]1CN(C)S(=O)(=O)c1cccs1
- activation [2]: 2.05% (inactive)
